Laboratory results as given in patent publication US20090215707A1, “COMPOUND HAVING CYCLIC STRUCTURE AND USE THEREOF” (RIKEN, priority 2005, published 2009).

These molecules were tested on spleen cells (assay: Cytokine (IFN-γ, IL-4) production in mouse spleen cell culture, sandwich ELISA assay). Settings: mouse spleen cells 2×10^5 cells/well, reagent at 2, 20 and 200 ng/mL, supernatant 4 days later, values only in FIG. 1-6.
Format: cell-based
Protocol: The spleen cells removed from the spleen of mouse were individually prepared to 2×10^5 cells/well (96-well plate) using RPMI1640 culture medium (manufactured by Sigma Corporation) containing 10% fetal calf serum (FCS). A reagent was added to the culture medium at each of the concentrations of 2 ng/mL, 20 ng/mL and 200 ng/mL. The cytokine amount in the culture supernatant 4 days later was measured by sandwich ELISA assay. As the test substances, compounds 33 and 34 obtained in Examples 14 and 15 were used, and α-galactosylceramide represented by the following formula (a) (α-GC, abbreviated as compound a in the Figure) was used as a control substance. In addition, DMSO was used as a control.
The cytokine amount was measured by sandwich ELISA assay in the same manner as in Experimental Example 1 except that compound 23 obtained in Example 6 was used as a test substance. In addition, the time course changes in the amount of IFN-γ production are shown in FIG. 5, and the time course changes in the amount of IL-4 production are shown in FIG. 6.

Structure (SMILES)	cytokine production pattern (IFN-γ and IL-4 production amount in culture supernatant)
CCCCCCCCCCCCCCCCCCCCCCCCCC(=O)N1[C@@H](CCCCCCCCCCCCCC)[C@@H](O)[C@@H]1COC1OC(CO)C(O)C(O)C1O (stereo partly shown) [compound 23]	ability to preferentially induce IL-4 production
CCCCCCCCCCCCCCCCCCCCCCCCCC(=O)N1[C@@H](CCCCCCCCCCCCC)C[C@@H](O)[C@@H]1COC1OC(CO)C(O)C(O)C1O (stereo partly shown) [compound 33]	IL-4 preferential cytokine production pattern
CCCCCCCCCCCCCCCCCCCCCCCCCC(=O)N1[C@@H](CCCCCCCCCCCCC)C[C@@H](O)[C@@H]1COC1OC(CO)C(O)C(O)C1O (stereo partly shown) [compound 34]	IL-4 preferential cytokine production pattern
CCCCCCCCCCCCCCCCCCCCCCCCCC(=O)N[C@@H](COC1OC(CO)C(O)C(O)C1O)[C@H](O)[C@H](O)CCCCCCCCCCCCCC (stereo partly drawn) [α-galactosylceramide, reference compound]	produced both IFN-γ and IL-4 in large amounts
